Laboratory results published in patent US10111431B2, “Application of biofilm formation inhibiting compounds enhances control of citrus canker” (priority 2013, dated 2018).

Columns and labels:
[1] = tested on: Xac 306 biofilm cells; experiment: Resistance of Xac biofilm cells to copper, cell viability assay in glass tubes; type: cell-based, Xanthomonas citri subsp. citri; conditions: for susceptibility of biofilms to CuSO4 relative to untreated control: 10 mM D-leucine, 100 μg/mL IAN; for cell viability of Xac biofilms exposed to CuSO4: CuSO4 1.0 mM plus biofilm inhibitor; for viable cells in biofilms: CuSO4 (1.0 mM) plus D-leucine 10.0 mM and/or IAN 100 μg/ml, 24 h
Experimental: The level of copper resistance of biofilms was evaluated using a cell viability assays. Briefly, Xac biofilms were prepared using NB with stationary incubation in glass tubes as described above. After 48 h-incubation, the cultures were removed and bacterial cells attached to the tubes were gently washed three times with SDW. One milliliter of fresh NB with CuSO4 (1.0 mM), D-leucine (10 mM) or IAN (100 μg/mL), or a combination of these compounds was added to each tube. NB alone was used as control. Tubes were kept at room temperature for 24 h and shaken vigorously for 5 min. The suspensions were diluted in 10-fold series, and 10 μL of each dilution spotted in triplicate on NA plate. Plates were incubated at 28° C. for 48 to 72 h prior to assessing bacterial growth. Colonies that grew near the dilution end-point were counted and bacterial populations in the initial suspensions prior to dilution were calculated. Each treatment compromises four replicates and the experiment repeated three times.

[2] = tested on: X. citri subsp. citri on citrus fruit; experiment: Detached immature grapefruit fruit spray inoculation; type: in vivo, Xanthomonas citri subsp. citri; conditions: for decrease in CFU per square centimeter of fruit tissue compared with untreated control / canker symptom development on fruit surface (lesion numbers): D-leucine 10 mM, IAN 100 μg/ml; for canker symptom development on fruit surface (lesion numbers): applied along with pathogen, preliminary study; for log reduction in the number of CFU per square centimeter: fruit, 11 days after inoculation

| Structure (SMILES) | susceptibility of biofilms to CuSO4 relative to untreated control [1] | cell viability of Xac biofilms exposed to CuSO4 [1] | viable cells in biofilms [1] | decrease in CFU per square centimeter of fruit tissue compared with untreated control [2] | canker symptom development on fruit surface (lesion numbers) [2] | log reduction in the number of CFU per square centimeter [2] [log] |
| --- | --- | --- | --- | --- | --- | --- |
| CC(C)C[C@@H](N)C(=O)O [D-leucine] | about 10 times | significantly reduced | 1.1×10^6 CFU/mL | approximately 50 fold | able to reduce canker symptom development | ~1.6 |
| N#CCc1c[nH]c2ccccc12 [IAN, 3-indolylacetonitrile] | about 10 times | significantly reduced | 4.3×10^6 CFU/mL | approximately 50 fold | able to reduce canker symptom development | ~1.8 |
